Reference: article PMC10762035, “Molecular basis of human trace amine-associated receptor 1 activation” (Nature Communications, 2024)
Values joined by “and” are separate entries in the source; they are usually repeats but may differ in a detail not shown here. Equal entries are not always repeated.

What was measured:
hTA1 [1] = target: T1, hTA1 (Homo sapiens, UniProt Q96RJ0); conditions: cited from earlier work
T1 construct: expressed in transfected cells; host or cells: HEK293T
T1 sequence (Q96RJ0 1-339): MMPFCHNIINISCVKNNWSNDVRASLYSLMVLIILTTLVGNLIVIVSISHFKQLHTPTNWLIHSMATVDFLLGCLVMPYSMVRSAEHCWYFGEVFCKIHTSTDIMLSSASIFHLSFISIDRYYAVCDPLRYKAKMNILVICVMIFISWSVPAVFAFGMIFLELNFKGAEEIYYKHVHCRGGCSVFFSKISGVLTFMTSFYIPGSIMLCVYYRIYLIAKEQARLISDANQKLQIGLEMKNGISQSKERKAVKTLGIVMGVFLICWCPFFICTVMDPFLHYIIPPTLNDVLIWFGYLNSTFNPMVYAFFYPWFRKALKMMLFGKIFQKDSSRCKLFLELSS

mTA1 [2] = conditions: read-out: affinity; cited from earlier work
rTA1 = conditions: cited from earlier work
mTA1 [3] = conditions: cited from earlier work
hTA1 [4] = target: T1, hTA1; conditions: antagonist; cited from earlier work
DRD4 S^5.43A = conditions: S^5.43A mutation in DRD4; cited from earlier work
hTA1 [5] = target: T1, hTA1; assay: Screen of 89 aminergic compounds at 10 µM, cAMP accumulation in HEK293T cells; type: cell-based; conditions: 10 µM of compound; HEK293T; threshold log2-fold change of 2;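 also: HEK293T cells co-transfected with hTA1 and GloSensor cAMP reporter, cAMP accumulation detected by luminescence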
hTA1 [6] = target: T1, hTA1; assay: GloSensor cAMP accumulation assay, concentration response, wild-type hTA1 in transfected HEK293T cells; type: cell-based; conditions: log[Compound], replicate wells;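 also: luminescence read after 30 min compound exposure at room temperature in cells preloaded with D-Luciferin, reflecting Gs-driven cAMP rise, efficacy scaled to the maximal β-PEA response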

increase of signal over DMSO-treated controls (hTA1 activation) (hTA1 [5]) [fold]	Normalized Luminescence Counts for WT hTA1 (hTA1 [6]; M = -5)	Normalized Luminescence Counts for WT hTA1 (hTA1 [6]; M = -5.522)	Normalized Luminescence Counts for WT hTA1 (hTA1 [6]; M = -6)	Normalized Luminescence Counts for WT hTA1 (hTA1 [6]; M = -6.522)	Normalized Luminescence Counts for WT hTA1 (hTA1 [6]; M = -7)	Normalized Luminescence Counts for WT hTA1 (hTA1 [6]; M = -7.522)	Normalized Luminescence Counts for WT hTA1 (hTA1 [6]; M = -8)	Normalized Luminescence Counts for WT hTA1 (hTA1 [6]; M = -8.522)	Normalized Luminescence Counts for WT hTA1 (hTA1 [6]; M = -9)	Normalized Luminescence Counts for WT hTA1 (hTA1 [6]; M = -9.522)	Normalized Luminescence Counts for WT hTA1 (hTA1 [6]; M = -10)	Normalized Luminescence Counts for WT hTA1 (hTA1 [6]; M = -10.522)	Normalized Luminescence Counts for WT hTA1 (hTA1 [6]; M = -11)	Normalized Luminescence Counts for WT hTA1 (hTA1 [6]; M = -11.522)	Normalized Luminescence Counts for WT hTA1 (hTA1 [6]; M = -12)	Normalized Luminescence Counts for WT hTA1 (hTA1 [6]; M = -12.522)	SMILES	also measured
–	–	–	–	–	–	–	–	–	–	–	–	–	–	–	–	–	CCOc1cccc(NC(=O)c2ccc(N3CCCC3)c(C(F)(F)F)c2)c1 [EPPTB]	binding to hTA1 (hTA1 [1]): does not appear to bind hTA1; Ki (mTA1 [2]): ~1 nM
–	–	–	–	–	–	–	–	–	–	–	–	–	–	–	–	–	N#Cc1c(C(F)(F)F)cc(-c2ccc(Cl)cc2)nc1SCC(=O)Nc1ncccn1 [RTI-7470-44]	reduced potency relative to hTA1 (rTA1; rTA1): ~ 90 fold; reduced potency relative to hTA1 (mTA1 [3]): ~ 140 fold; IC50 (hTA1 [4]): ~8 nM
–	–	–	–	–	–	–	–	–	–	–	–	–	–	–	–	–	NCCc1ccc(O)c(O)c1 [dopamine]	lowered potency by mutation (DRD4 S^5.43A): 7 fold
≥ 4	13.9149 and 11.9176 and 12.507	9.888 and 9.789 and 7.596	6.6135 and 5.238 and 5.4348	5.599 and 3.8632 and 6.122	3.11 and 1.735 and 0.9819	1.047 and 0.5563 and 0.1634	0.7855 and 0.1634 and 0.8182	-0.0658 and 0.09791 and -0.0003118	-0.426 and -0.3932 and -0.5242	-0.8516 and -0.0003118 and -0.6224	-0.3277 and 0.03243 and -0.5897	-0.7206 and -0.2622 and 0.3598	0.3926 and 0.1634 and 0.4253	0.4253 and 1.047 and -0.2622	0.3271 and -0.09854 and 0.6218	0.5236 and 0.9492 and 0.2616	CCCN1C[C@H](CSC)C[C@@H]2c3cccc4[nH]cc(c34)C[C@H]21 [pergolide]	–
≥ 4	4.714 and 4.976 and 5.959	3.012 and 2.619 and 2.979	0.6873 and 0.2616 and 0.2944	0.06517 and 0.4908 and -0.09854	0.03243 and 0.2289 and -0.5569	-0.0003118 and -0.1313 and -0.0658	0.2944 and -0.3605 and 0.3598	-0.1968 and 0.4581 and 0.1307	-0.2295 and -0.4587 and -0.5242	-0.3277 and -0.3605 and -0.6224	-0.164 and -0.2622 and 0.3926	0.3271 and -1.0153 and 0.3926	0.3598 and 0.06517 and 0.6218	0.4581 and -0.3277 and -0.1968	-0.164 and 0.06517 and -0.09854	0.589 and 1.473 and 0.2944	c1ccc2nc(N3CCNCC3)ccc2c1 [quipazine]	–
–	–	–	–	–	–	–	–	–	–	–	–	–	–	–	–	–	NCCc1c[nH]c2ccccc12 [tryptamine]	higher potency at rTA1 compared to hTA1 (rTA1; rTA1 vs hTA1): over 50 fold

SMILES	increase of signal over DMSO-treated controls (hTA1 activation) (hTA1 [5]) [fold]	Normalized Luminescence Counts for WT hTA1 (hTA1 [6]; M = -5)	Normalized Luminescence Counts for WT hTA1 (hTA1 [6]; M = -5.522)	Normalized Luminescence Counts for WT hTA1 (hTA1 [6]; M = -6)	Normalized Luminescence Counts for WT hTA1 (hTA1 [6]; M = -6.522)	Normalized Luminescence Counts for WT hTA1 (hTA1 [6]; M = -7)	Normalized Luminescence Counts for WT hTA1 (hTA1 [6]; M = -7.522)	Normalized Luminescence Counts for WT hTA1 (hTA1 [6]; M = -8)	Normalized Luminescence Counts for WT hTA1 (hTA1 [6]; M = -8.522)	Normalized Luminescence Counts for WT hTA1 (hTA1 [6]; M = -9)	Normalized Luminescence Counts for WT hTA1 (hTA1 [6]; M = -9.522)	Normalized Luminescence Counts for WT hTA1 (hTA1 [6]; M = -10)	Normalized Luminescence Counts for WT hTA1 (hTA1 [6]; M = -10.522)	Normalized Luminescence Counts for WT hTA1 (hTA1 [6]; M = -11)	Normalized Luminescence Counts for WT hTA1 (hTA1 [6]; M = -11.522)	Normalized Luminescence Counts for WT hTA1 (hTA1 [6]; M = -12)	Normalized Luminescence Counts for WT hTA1 (hTA1 [6]; M = -12.522)	also measured
Cc1cc(C(C)(C)C)c(O)c(C)c1CC1=NCCN1 [oxymetazoline]	≥ 4	35.3607 and 39.1587 and 34.0837 and 3.969 and 2.152 and 2.824	27.6664 and 21.0198 and 25.8983 and 1.56 and 0.6511 and 0.8091	14.0131 and 12.0159 and 14.9299 and -0.5736 and -1.127 and -1.4822	3.994 and 5.664 and 5.697 and -1.838 and -1.68 and -1.798	1.539 and 1.637 and 2.128 and -1.4822 and -2.075 and -1.719	-0.1968 and -0.426 and -0.09854 and -2.035 and -2.2723 and -2.391	0.03243 and -0.0003118 and 0.1634 and -1.166 and -0.9291 and -1.403	-0.7206 and -0.5569 and -0.1313 and -1.364 and -1.522 and -1.956	-0.7534 and -0.7861 and -0.0003118 and -1.403 and -1.798 and -2.035	-0.7206 and -0.4914 and -0.5569 and -1.4822 and -1.64 and -1.838	-1.31 and -1.0153 and -0.5242 and -2.075 and -1.4427 and -2.3118	-0.1313 and -0.7206 and -0.7861 and -2.075 and -1.4822 and -2.43	-0.03305 and -0.6224 and 0.03243 and -1.522 and -0.4551 and -2.114	-0.4914 and -0.4587 and -0.5242 and -1.403 and -1.048 and -2.075	-0.5897 and -0.6224 and -0.3932 and -2.035 and -1.4427 and -1.956	0.09791 and 0.06517 and -0.7861 and -1.64 and -1.127 and -0.8106	–
